Measured values from patent US7998952B2, “Thiolactams and uses thereof” (Millennium Pharmaceuticals, Inc., priority 2008, dated 2011).

target: T1, recombinant human PLK1[2-369]T210D (Homo sapiens, UniProt P53350, T210D); assay: PLK1 DELFIA Kinase Assay; type: biochemical; conditions: 50 μM ATP, 2 μM peptide substrate, 0.3 nM enzyme, 90 minutes at room temperature
T1 construct: recombinant human PLK1[2-369]T210D; Smt (SUMO) fusion partner (N, cleaved yes); host or cells: E. coli
Experimental: Recombinant human PLK1 was expressed in E. coli as an N-terminal Smt fusion protein using a proprietary vector (pSGX4) by Structural Genomics (SGX). The fusion partner was removed through cleavage with Ulp1 after an initial purification using a Ni2+ affinity column.
PLK1 DELFIA® Kinase Assay
The enzymatic reaction mixture, with or without PLK inhibitors, was incubated 90 minutes at room temperature before termination with 50 μL of STOP buffer containing 1% BSA, 0.05% Tween20, 100 mM EDTA. 50 μL of the stopped enzyme reaction mixture was transferred to a Neutravidin-coated 384-well plate (Pierce) and incubated at room temperature for 60 minutes. […] The wells were washed and then the bound europium was liberated using 50 μL of Enhancement Solution (Perkin Elmer). Quantification of europium was done using a Pherastar (BMG Labtech)

T1 sequence (P53350 2-369 T210D): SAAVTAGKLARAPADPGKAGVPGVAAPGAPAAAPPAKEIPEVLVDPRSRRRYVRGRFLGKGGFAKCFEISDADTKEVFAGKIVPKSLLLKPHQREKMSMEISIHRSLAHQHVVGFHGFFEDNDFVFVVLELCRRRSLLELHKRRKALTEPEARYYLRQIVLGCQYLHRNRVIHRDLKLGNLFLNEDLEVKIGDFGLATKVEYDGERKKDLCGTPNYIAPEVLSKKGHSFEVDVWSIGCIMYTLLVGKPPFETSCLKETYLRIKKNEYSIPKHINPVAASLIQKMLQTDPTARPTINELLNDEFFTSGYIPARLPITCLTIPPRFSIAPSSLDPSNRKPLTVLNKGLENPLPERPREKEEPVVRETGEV

| SMILES | IC50 |
| --- | --- |
| Cc1nc(N(C)CCCN(C)C)ccc1Nc1ncc2c(n1)-c1ccc(Cl)cc1NC(=S)C2 [Compound I-41, 9-chloro-2-({6-[[3-(dimethylamino)propyl](methyl)amino]-2-methylpyridin-3-yl}amino)-5,7-dihydro-6H-pyrimido[5,4-d][1]benzazepine-6-thione] | 5 to 25 nM |
| CCc1ncc(CCCN(C)C)cc1Nc1ncc2c(n1)-c1ccc(Cl)cc1NC(=S)C2 [Compound I-38, 9-chloro-2-({5-[3-(dimethylamino)propyl]-2-ethylpyridin-3-yl}amino)-5,7-dihydro-6H-pyrimido[5,4-d][1]benzazepine-6-thione] | < 5 nM |
| Cc1nc(N(C)C2CCN(C)C2)ccc1Nc1ncc2c(n1)-c1ccc(C(F)(F)F)cc1NC(=S)C2 (stereo not shown) [Compound I-95, 2-({2-methyl-6-[methy(1-methylpyrrolidin-3-yl)amino]pyridin-3-yl}amino)-9-(trifluoromethyl)-5,7-dihydro-6H-pyrimido[5,4-d][1]benzazepine-6-thione] | < 5 nM |
| Cc1nc(C(=O)NC2CCN(C)CC2)ccc1Nc1ncc2c(n1)-c1ccc(C(F)(F)F)cc1NC(=S)C2 [Compound I-123, 6-methyl-N-(1-methylpiperidin-4-yl)-5-{[6-thioxo-9-(trifluoromethyl)-6,7-dihydro-5H-pyrimido[5,4-d][1]benzazepin-2-yl]amino}pyridine-2-carboxamide] | 5 to 25 nM |
| Cc1nc(NCCCN(C)C)ccc1Nc1ncc2c(n1)-c1ccc(C(F)(F)F)cc1NC(=S)C2 [Compound I-23, 2-[(6-{[3-(dimethylamino)propyl]amino}-2-methylpyridin-3-yl)amino]-9-(trifluoromethyl)-5,7-dihydro-6H-pyrimido[5,4-d][1]benzazepine-6-thione] | < 5 nM |
| Cc1nc(NC2CCN(C)CC2)ccc1Nc1ncc2c(n1)-c1ccc(Cl)cc1NC(=S)C2 [Compound I-22, 9-chloro-2-({2-methyl-6-[(1-methylpiperidin-4-yl)amino]pyridin-3-yl}amino)-5,7-dihydro-6H-pyrimido[5,4-d][1]benzazepine-6-thione] | < 5 nM |
| Cc1ccc2c(c1)NC(=S)Cc1cnc(Nc3cc(CCCN(C)C)cnc3C)nc1-2 [Compound I-60, 2-({5-[3-(dimethylamino)propyl]-2-methylpyridin-3-yl}amino)-9-methyl-5,7-dihydro-6H-pyrimido[5,4-d][1]benzazepine-6-thione] | < 5 nM |
| Cc1nc(NC2CCOCC2)ccc1Nc1ncc2c(n1)-c1ccc(C(F)(F)F)cc1NC(=S)C2 [Compound I-18, 2-{[2-methyl-6-(tetrahydro-2H-pyran-4-ylamino)pyridin-3-yl]amino}-9-(trifluoromethyl)-5,7-dihydro-6H-pyrimido[5,4-d][1]benzazepine-6-thione] | < 5 nM |
| Cc1nc(NCCN(C)C)ccc1Nc1ncc2c(n1)-c1ccc(C(F)(F)F)cc1NC(=S)C2 [Compound I-64, 2-[(6-{[2-(dimethylamino)ethyl]amino}-2-methylpyridin-3-yl)amino]-9-(trifluoromethyl)-5,7-dihydro-6H-pyrimido[5,4-d][1]benzazepine-6-thione] | < 5 nM |
| Cc1nc(N(C)C2CCN(C)C2)ccc1Nc1ncc2c(n1)-c1ccc(Cl)cc1NC(=S)C2 (stereo not shown) [Compound I-3, 9-chloro-2-({2-methyl-6-[methyl(1-methylpyrrolidin-3-yl)amino]pyridin-3-yl}amino)-5,7-dihydro-6H-pyrimido[5,4-d][1]benzazepine-6-thione] | 5 to 25 nM |
| Cc1ncc(CCN2CCOCC2)cc1Nc1ncc2c(n1)-c1ccc(C(F)(F)F)cc1NC(=S)C2 [Compound I-43, 2-{[2-methyl-5-(2-morpholin-4-ylethyl)pyridin-3-yl]amino}-9-(trifluoromethyl)-5,7-dihydro-6H-pyrimido[5,4-d][1]benzazepine-6-thione] | < 5 nM |
| Cc1nc(N2CCC(N(C)C)CC2)ccc1Nc1ncc2c(n1)-c1ccc(Cl)cc1NC(=S)C2 [Compound I-69, 9-chloro-2-({6-[4-(dimethylamino)piperidin-1-yl]-2-methylpyridin-3-yl}amino)-5,7-dihydro-6H-pyrimido[5,4-d][1]benzazepine-6-thione] | < 5 nM |
| Cc1ncc(CCN2CCOCC2)cc1Nc1ncc2c(n1)-c1ccc(Cl)cc1NC(=S)C2 [Compound I-72, 9-chloro-2-{[2-methyl-5-(2-morpholin-4-ylethyl)pyridin-3-yl]amino}-5,7-dihydro-6H-pyrimido[5,4-d][1]benzazepine-6-thione] | < 5 nM |
| Cc1nc(N(C)CCN(C)C)ccc1Nc1ncc2c(n1)-c1ccc(Cl)cc1NC(=S)C2 [Compound I-112, 9-chloro-2-({6-[[2-(dimethylamino)ethyl](methyl)amino]-2-methylpyridin-3-yl}amino)-5,7-dihydro-6H-pyrimido[5,4-d][1]benzazepine-6-thione] | 5 to 25 nM |
| COc1ccc2c(c1)NC(=S)Cc1cnc(Nc3cc(CCCN(C)C)cnc3C)nc1-2 [Compound I-1, 2-({5-[3-(dimethylamino)propyl]-2-methylpyridin-3-yl}amino)-9-methoxy-5,7-dihydro-6H-pyrimido[5,4-d][1]benzazepine-6-thione] | < 5 nM |
| Cc1nc(CCCN(C)C)ccc1Nc1ncc2c(n1)-c1ccc(C(F)(F)F)cc1NC(=S)C2 [Compound I-101, 2-({6-[3-(dimethylamino)propyl]-2-methylpyridin-3-yl}amino)-9-(trifluoromethyl)-5,7-dihydro-6H-pyrimido[5,4-d][1]benzazepine-6-thione] | 5 to 25 nM |
| Cc1nc(NC2CCNCC2)ccc1Nc1ncc2c(n1)-c1ccc(Cl)cc1NC(=S)C2 [Compound I-85, 9-chloro-2-{[2-methyl-6-(piperidin-4-ylamino)pyridin-3-yl]amino}-5,7-dihydro-6H-pyrimido[5,4-d][1]benzazepine-6-thione] | < 5 nM |
| Cc1nc(N2CCCC2)ccc1Nc1ncc2c(n1)-c1ccc(C(F)(F)F)cc1NC(=S)C2 [Compound I-110, 2-[(2-methyl-6-pyrrolidin-1-ylpyridin-3-yl)amino]-9-(trifluoromethyl)-5,7-dihydro-6H-pyrimido[5,4-d][1]benzazepine-6-thione] | 5 to 25 nM |
| CN1CCN(c2ccc(Nc3ncc4c(n3)-c3ccc(Cl)cc3NC(=S)C4)cn2)CC1 [Compound I-28, 9-chloro-2-{[6-(4-methylpiperazin-1-yl)pyridin-3-yl]amino}-5,7-dihydro-6H-pyrimido[5,4-d][1]benzazepine-6-thione] | < 5 nM |
| Cc1nc(CCCN(C)C)ccc1Nc1ncc2c(n1)-c1ccc(Cl)cc1NC(=S)C2 [Compound I-16, 9-chloro-2-({6-[3-(dimethylamino)propyl]-2-methylpyridin-3-yl}amino)-5,7-dihydro-6H-pyrimido[5,4-d][1]benzazepine-6-thione] | 5 to 25 nM |
| Cc1nc(OC2CCN(C)CC2)ccc1Nc1ncc2c(n1)-c1ccc(Cl)cc1NC(=S)C2 [Compound I-56, 9-chloro-2-({2-methyl-6-[(1-methylpiperidin-4-yl)oxy]pyridin-3-yl}amino)-5,7-dihydro-6H-pyrimido[5,4-d][1]benzazepine-6-thione] | 5 to 25 nM |
| Cc1ncc(CCN2CCC(N(C)C)CC2)cc1Nc1ncc2c(n1)-c1ccc(Cl)cc1NC(=S)C2 [Compound I-59, 9-chloro-2-[(5-{2-[4-(dimethylamino)piperidin-1-yl]ethyl}-2-methylpyridin-3-yl)amino]-5,7-dihydro-6H-pyrimido[5,4-d][1]benzazepine-6-thione] | < 5 nM |
| Cc1ncc(CCN2CCC(N(C)C)C2)cc1Nc1ncc2c(n1)-c1ccc(Cl)cc1NC(=S)C2 (stereo not shown) [Compound I-15, 9-chloro-2-[(5-{2-[3-(dimethylamino)pyrrolindin-1-yl]ethyl}-2-methylpridin-3-yl)amino]-5,7-dihydro-6H-pyrimido[5,4-d][1]benzazepine-6-thione] | < 5 nM |
| Cc1ncc(CCCO)cc1Nc1ncc2c(n1)-c1ccc(C(F)(F)F)cc1NC(=S)C2 [Compound I-55, 2-{[5-(3-hydroxypropyl)-2-methylpyridin-3-yl]amino}-9-(trifluoromethyl)-5,7-dihydro-6H-pyrimido[5,4-d][1]benzazepine-6-thione] | < 5 nM |
| Cc1nc2c(cc1Nc1ncc3c(n1)-c1ccc(C(F)(F)F)cc1NC(=S)C3)C[C@H](N(C)C)CC2 [Compound I-113, 2-{[(6R)-6-(dimethylamino)-2-methyl-5,6,7,8-tetrahydroquinolin-3-yl]amino}-9-(trifluoromethyl)-5,7-dihydro-6H-pyrimido[5,4-d][1]benzazepine-6-thione] | < 5 nM |
| Cc1nc(N2CCCCC2)ccc1Nc1ncc2c(n1)-c1ccc(Cl)cc1NC(=S)C2 [Compound I-82, 9-chloro-2-[(2-methyl-6-piperidin-1-ylpyridin-3-yl)amino]-5,7-dihydro-6H-pyrimido[5,4-d][1]benzazepine-6-thione] | 5 to 25 nM |
| CN(C)CCc1cncc(Nc2ncc3c(n2)-c2ccc(Cl)cc2NC(=S)C3)c1 [Compound I-104, 9-chloro-2-({5-[2-(dimethylamino)ethyl]pyridin-3-yl}amino)-5,7-dihydro-6H-pyrimido[5,4-d][1]benzazepine-6-thione] | < 5 nM |
| Cc1ccnc(C)c1Nc1ncc2c(n1)-c1ccc(C(F)(F)F)cc1NC(=S)C2 [Compound I-98, 2-[(2,4-dimethylpyridin-3-yl)amino]-9-(trifluoromethyl)-5,7-dihydro-6H-pyrimido[5,4-d][1]benzazepine-6-thione] | > 25 nM |
